Data as given in EPA's ToxRefDB 2.

Assays:
dog [1] = details: Chronic toxicity; beagle; Oral; Capsule; dose end: 6 month; group: systemic; systemic / clinical chemistry / potassium / potassium + systemic / in life observation / body weight / body weight + systemic / in life …
rat [2] = details: Chronic toxicity; sprague dawley; Oral; Gavage/Intubation; dose end: 6 month; group: systemic; systemic / clinical chemistry / alanine aminotransferase (alt/sgpt) / alanine aminotransferase (alt/sgpt) + systemic / clinical chemistry / …
dog [3] = details: Sub-acute repeat dose toxicity; beagle; Oral; Capsule; dose end: 1 month; group: systemic; systemic / clinical chemistry / glucose / glucose + systemic / in life observation / body weight / body weight + systemic / in life …
mouse [4] = details: Sub-acute repeat dose toxicity, cd1, Oral, Gavage/Intubation, dose end: 4 week, group: systemic
mouse [5] = details: Sub-acute repeat dose toxicity, cd1, Oral, Gavage/Intubation, dose end: 4 week, group: systemic; remark: listed apart in the source
rabbit = details: Prenatal developmental toxicity study; new zealand white; Oral; Gavage/Intubation; dose end: 19 GD; group: maternal; systemic / in life observation / body weight / body weight gain + systemic / in life observation / clinical signs / anogenital staining + …
rat [6] = details: Chronic toxicity, sprague dawley, Oral, Gavage/Intubation, dose end: 6 month, group: systemic
mouse [7] = details: Subchronic oral toxicity in rodents, cd1, Gavage/Intubation, dose end: 13 week, group: systemic, systemic / clinical chemistry / alanine aminotransferase (alt/sgpt) / alanine aminotransferase (alt/sgpt) + systemic / clinical chemistry / …
[8] = systemic / in life observation / clinical signs / alopecia + systemic / in life observation / clinical signs / external lesion(s) + systemic…
[9] = systemic / in life observation / clinical signs / scabbing + systemic / in life observation / body weight / body weight + systemic / in life…
[10] = systemic / in life observation / clinical signs / alopecia + systemic / in life observation / clinical signs / scabbing + systemic / organ …
[11] = systemic / organ weight / liver / absolute + systemic / organ weight / liver / relative to body weight + systemic / pathology gross / lung…
[12] = systemic / clinical chemistry / albumin / albumin + systemic / clinical chemistry / alkaline phosphatase (alp/alk) / alkaline phosphatase (…
[13] = systemic / clinical chemistry / albumin / albumin + systemic / clinical chemistry / aspartate aminotransferase (ast/sgot) / aspartate …

Structure (SMILES): CCc1c(C(=O)NN2CCCCC2)nn(-c2ccc(Cl)cc2Cl)c1-c1ccc(Br)cc1 [Surinabant]
- LEL (dog [1]): 1.5 mg/kg/day
- LOAEL (dog [1]): 1.5 mg/kg/day
- NEL (dog [1]): < 1.5 mg/kg/day
- NOAEL (dog [1]): < 1.5 mg/kg/day
- LEL (rat [2]): 30 mg/kg/day
- LOAEL (rat [2]): > 60 mg/kg/day
- NEL (rat [2]): < 30 mg/kg/day
- NOAEL (rat [2]): ≥ 60 mg/kg/day
- LEL (dog [3]): 10 mg/kg/day
- LOAEL (dog [3]): 10 mg/kg/day
- NEL (dog [3]): < 10 mg/kg/day
- NOAEL (dog [3]): < 10 mg/kg/day
- LOAEL (mouse [4]; [8]): > 4000 mg/kg/day
- NOAEL (mouse [4]; [8]): ≥ 4000 mg/kg/day
- LEL (mouse [4]; [9]): 1000 mg/kg/day
- NEL (mouse [4]; [9]): < 1000 mg/kg/day
- LOAEL (mouse [5]; [10]): > 4000 mg/kg/day
- NOAEL (mouse [5]; [10]): ≥ 4000 mg/kg/day
- LEL (mouse [5]; [11]): 1000 mg/kg/day
- NEL (mouse [5]; [11]): < 1000 mg/kg/day
- LEL (rabbit): 0.5 mg/kg/day
- LOAEL (rabbit): 2 mg/kg/day
- NEL (rabbit): < 0.5 mg/kg/day
- NOAEL (rabbit): 0.5 mg/kg/day
- LOAEL (rat [6]; [12]): > 100 mg/kg/day
- NOAEL (rat [6]; [12]): ≥ 100 mg/kg/day
- LEL (rat [6]; [13]): 10 mg/kg/day
- NEL (rat [6]; [13]): < 10 mg/kg/day
- LEL (mouse [7]): 100 mg/kg/day
- LOAEL (mouse [7]): > 1000 mg/kg/day
- NEL (mouse [7]): < 100 mg/kg/day
- NOAEL (mouse [7]): ≥ 1000 mg/kg/day
